According to publication PMC10224544, “Synthesis, Structural Elucidation and Pharmacological Applications of Cu(II) Heteroleptic Carboxylates” (Pharmaceuticals, 2023):

Key:
DPPH scavenging assay [1] = conditions: for DPPH Free Radical Scavenging Ability: mean ± S.E.M, n = 3
Source text: The antioxidant potential of the free acids and their Cu(II) carboxylates was explored via the DPPH method using ascorbic acid as a reference. The DPPH, with a single unpaired electron, is capable of accepting a hydrogen or electron and gives a strong absorption at 517 nm. The absorption generally decreases when it accepts a hydrogen or electron from an antioxidant, forming a stable molecule. The results given in Table 5 indicate that the compounds under study show a moderate level of antioxidant potential. This activity may be attributed to the various structural and electronic factors like coordination geometry, redox properties, chelate ring size, degree of unsaturation, etc.. The transfer of proton or electron from an antioxidant to DPPH results in the formation of species that undergo other reactions like coupling, fragmentation, and addition, which affect the rate and stoichiometry of the reaction.
The compounds under study were subjected to DPPH scavenging ability test as per cited literature. A 0.004% solution of reagent DPPH was added to the different concentrations of tested compounds (i.e., 125, 250, 500 and 1000 μg/mL) and the reaction mixture was incubated subsequently for about thirty minutes in dark. Ascorbic acid was used as positive control. The UV-3000 O.R.I. Germany was used to record the change in absorption of the reaction mixture at 517 nm and the percentage scavenging ability of the compounds under study was determined using formula: % scavenging activity =Absorbance of control−Absorbance of compounds /Absorbance of control×100
The experiments were repeated thrice. The GraphPad Prism® (version 4.0, Sandiego, CA, USA) was used to calculate the IC50 values.

[2] = Hydrogen peroxide scavenging assay; conditions: for H2O2 free radical scavenging ability: mean ± S.E.M, n = 3
Procedure: In addition to DPPH the ligand acids and their complexes were also evaluated for their peroxide scavenging ability test. Hydrogen peroxide (H2O2) is a biologically important, non-radical reactive oxygen species (ROS) that can influence several cellular processes. It is a weak oxidizing agent and can inactivate a few enzymes directly, usually via oxidation of essential thiol (-SH) groups. It can cross cell membranes rapidly, and inside the cell, H2O2 probably reacts with Fe^2+ (and possibly Cu^2+) ions to form the hydroxyl radical, which may be the origin of many of its toxic effects. It is, therefore, biologically advantageous for cells to control the amount of hydrogen peroxide that is allowed to accumulate.
The ligand acids and their Cu(II) carboxylates were further subjected to H2O2 scavenging ability test potential by following the procedure as per cited literature. A 2 mM solution of H2O2 was made in 50 mM phosphate buffer having a pH 7.4. In the next step, 0.1 mL of the screened compounds was added to the 0.3 mL (50 mM) of phosphate buffer, then 0.6 mL of H2O2 was added and the solution was vortexed. After following the incubation period of 10 min, the absorption was 230 nm in comparison to the blank.

[3] = biological target: acetylcholinesterase (AChE) (Electrophorus electricus, UniProt O42275); assay: biochemical; assay type: biochemical; conditions: for Inhibition of Acetylcholinesterase (%AChE Activity): n = 3
acetylcholinesterase (AChE), sequence (O42275 24-633): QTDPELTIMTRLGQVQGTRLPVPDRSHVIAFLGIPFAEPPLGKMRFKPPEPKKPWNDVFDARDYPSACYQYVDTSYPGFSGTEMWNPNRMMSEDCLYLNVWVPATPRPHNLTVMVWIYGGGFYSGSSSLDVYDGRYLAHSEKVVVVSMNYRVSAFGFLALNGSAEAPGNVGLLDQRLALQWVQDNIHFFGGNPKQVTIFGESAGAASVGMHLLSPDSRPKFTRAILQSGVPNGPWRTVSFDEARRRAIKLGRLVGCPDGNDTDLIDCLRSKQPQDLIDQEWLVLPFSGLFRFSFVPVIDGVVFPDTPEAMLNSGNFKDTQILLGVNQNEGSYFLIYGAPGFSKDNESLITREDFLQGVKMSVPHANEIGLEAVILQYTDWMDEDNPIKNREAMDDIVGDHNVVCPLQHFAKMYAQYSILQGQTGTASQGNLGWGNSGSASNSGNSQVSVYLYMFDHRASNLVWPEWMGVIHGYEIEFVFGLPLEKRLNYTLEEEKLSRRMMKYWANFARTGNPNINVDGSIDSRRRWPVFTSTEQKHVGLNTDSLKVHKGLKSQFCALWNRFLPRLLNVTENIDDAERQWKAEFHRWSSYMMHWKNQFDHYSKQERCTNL
Procedure: The synthesized compounds were evaluated for acetylcholinesterase (ACh) and butyrylcholinesterase (BCh) enzyme inhibitory activities.
(§1) The enzymes acetylcholinesterase (AChE) and butyrylcholinesterase (BChE) play an important role in the transfer of signals and physiological function. They assist acetylcholine to hydrolyze and produce choline and acetyl group in synaptic region. So, they are considered as targets in the management of Alzheimer’s disease. Herein, the compounds under study were evaluated for their potential to inhibit acetylthiocholine iodide (AChI) and butyrylthiocholine iodide (BChI) enzymes.
(§2) The well-known Ellman’s assay was implemented to evaluate the inhibitory potential using acetylthiocholine iodide (AChI) and butyrylthiocholine iodide (BChI) as substrates, respectively. The basic principle of the assay is the hydrolysis of acetylthiocholine iodide and butyrylthiocholine iodide by their corresponding enzymes, resulting in the formation of 5-thio-2-nitrobenzoate anion.
(§3) To carry out the assay, 0.1 M buffer solution with pH 8 was prepared as per the cited literature where the pH was adjusted using KOH (potassium hydroxide). Using the freshly prepared buffer and following the dilution, final concentrations of 0.03 U/mL for AChE (518 U/mg solid) and 0.01 U/mL for BChE (7–16 U/mg) were obtained. […] After that, the final solution of each of the AChE and BChE was prepared in distilled water in the presence of […] DTNB and were stored at 8 °C. The experiment was performed by taking 205 µL of inhibitor (tested compound) along with 5 µL of prepared solutions of enzymes, followed by the addition of 5 μL DTNB reagent. They were then incubated for about 15 min in a water bath at a temperature of 30 °C. Later on, 5 µL substrate solution was added to them which were subjected to absorption check at 412 nm. […] The temperature of the spectrophotometer was adjusted at 30 °C and then, following the reaction time of 4 min, the absorbance values were noted after regular intervals. The experiment was repeated, and change in absorption with time was used to calculate the percentage activity of enzyme and enzyme inhibitor [59]. The p values, or calculated probability levels, are categorized as: 5% (p < 0.05), 1% (p < 0.01) and 0.1% (p < 0.001). p < 0.05 means statistically significant and p < 0.001 means highly statistically significant.

[4] = biological target: butyrylcholinesterase (BChE) (Equus caballus, UniProt P81908); assay: biochemical; conditions: for inhibition of butyrylcholinesterase (% BChE activity): n = 3
butyrylcholinesterase (BChE), sequence (P81908 whole entry): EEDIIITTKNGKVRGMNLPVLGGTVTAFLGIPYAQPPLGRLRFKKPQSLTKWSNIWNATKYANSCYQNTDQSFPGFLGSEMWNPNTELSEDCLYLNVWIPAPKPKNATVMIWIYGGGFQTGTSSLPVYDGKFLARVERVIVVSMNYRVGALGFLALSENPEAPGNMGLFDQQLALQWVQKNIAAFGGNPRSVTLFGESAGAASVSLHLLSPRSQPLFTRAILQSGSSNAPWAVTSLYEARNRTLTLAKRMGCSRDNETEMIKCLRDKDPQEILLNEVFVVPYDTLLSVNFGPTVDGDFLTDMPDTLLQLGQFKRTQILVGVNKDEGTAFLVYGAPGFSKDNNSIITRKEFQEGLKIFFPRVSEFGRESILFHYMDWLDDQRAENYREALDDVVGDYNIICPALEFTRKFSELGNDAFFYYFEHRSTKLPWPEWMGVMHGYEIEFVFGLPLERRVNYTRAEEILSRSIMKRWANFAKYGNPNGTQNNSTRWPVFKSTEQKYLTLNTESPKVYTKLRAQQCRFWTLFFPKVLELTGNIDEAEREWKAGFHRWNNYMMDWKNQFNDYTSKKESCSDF
Procedure: as §1, §2, §3

DPPH scavenging assay [5] = conditions: Comp. Conc. 62.5 µg/mL; mean ± S.E.M, n = 3

Compound | IC50, DPPH Free Radical Scavenging Ability (DPPH scavenging assay [1]) [µg/mL] | DPPH Free Radical Scavenging Ability (DPPH scavenging assay [1]; Comp. Conc. 125 µg/mL) | DPPH Free Radical Scavenging Ability (DPPH scavenging assay [1]; Comp. Conc. 250 µg/mL) [%] | DPPH Free Radical Scavenging Ability (DPPH scavenging assay [1]; Comp. Conc. 500 µg/mL) [%] | DPPH Free Radical Scavenging Ability (DPPH scavenging assay [1]; Comp. Conc. 1000 µg/mL) [%] | H2O2 free radical scavenging ability ([2]; Comp. Conc. 62.5 µg/mL) [%] | H2O2 free radical scavenging ability ([2]; Comp. Conc. 125 µg/mL) | H2O2 free radical scavenging ability ([2]; Comp. Conc. 250 µg/mL) [%] | H2O2 free radical scavenging ability ([2]; Comp. Conc. 500 µg/mL) [%] | H2O2 free radical scavenging ability ([2]; Comp. Conc. 1000 µg/mL) | IC50, Inhibition of Acetylcholinesterase [3] [µg/mL] | Inhibition of Acetylcholinesterase (%AChE Activity) ([3]; Comp. Conc. 62.5 µg/mL) [%] | Inhibition of Acetylcholinesterase (%AChE Activity) ([3]; Comp. Conc. 125 µg/mL) | Inhibition of Acetylcholinesterase (%AChE Activity) ([3]; Comp. Conc. 250 µg/mL) | Inhibition of Acetylcholinesterase (%AChE Activity) ([3]; Comp. Conc. 500 µg/mL) | Inhibition of Acetylcholinesterase (%AChE Activity) ([3]; Comp. Conc. 1000 µg/mL) | IC50, inhibition of butyrylcholinesterase [4] [µg/mL] | inhibition of butyrylcholinesterase (% BChE activity) ([4]; Comp. Conc. 62.5 µg/mL) [%] | inhibition of butyrylcholinesterase (% BChE activity) ([4]; Comp. Conc. 125 µg/mL) [%] | inhibition of butyrylcholinesterase (% BChE activity) ([4]; Comp. Conc. 250 µg/mL) [%] | other results
N#Cc1cccnc1.N#Cc1cccnc1.O=C([O-])Cc1ccccc1Cl.O=C([O-])Cc1ccccc1Cl.O=C([O-])Cc1ccccc1Cl.O=C([O-])Cc1ccccc1Cl.[Cu+2].[Cu+2] [Complex 1, Cu2(2-ClC6H4COO)4(3-CNPy)2] | 17.69 | 61.40 ± 0.51 % | 67.44 ± 0.55 | 73.47 ± 0.52 | 78.39 ± 0.49 | 53.50 ± 0.73 | 62.42 ± 0.57 % | 70.32 ± 0.52 | 74.27 ± 0.57 | 80.30 ± 0.64 % | 39 | 55.67 ± 0.61 | 62.69 ± 0.77 % | 67.83 ± 0.56 % | 72.60 ± 0.80 % | 77.61 ± 0.77 % | 12 | 64.53 ± 0.71 | 68.51 ± 0.77 | 71.75 ± 0.58 | inhibition of butyrylcholinesterase (% BChE activity) ([4]; Comp. Conc. 500 µg/mL): 76.45 ± 0.49 %; inhibition of butyrylcholinesterase (% BChE activity) ([4]; Comp. Conc. 1000 µg/mL): 81.79 ± 0.62 %; DPPH Free Radical Scavenging Ability (DPPH scavenging assay [5]): 55.57 ± 0.84 %
N#Cc1ccncc1.N#Cc1ccncc1.O=C([O-])Cc1ccccc1Cl.O=C([O-])Cc1ccccc1Cl.O=C([O-])Cc1ccccc1Cl.O=C([O-])Cc1ccccc1Cl.[Cu+2].[Cu+2] [Complex 2, Cu2(2-ClC6H4COO)4(4-CNPy)2] | 3.22 | 81.20 ± 0.65 ^⸙ % | 86.98 ± 0.85 | 91.17 ± 0.53 | 95.20 ± 0.15 | 74.17 ± 0.72 | 79.60 ± 0.90 ^⸸ % | 85.50 ± 0.40 | 89.37 ± 1.65 | 93.55 ± 0.40 % | 2 | 71.73 ± 0.66 | 73.70 ± 0.35 ^⸙ % | 78.07 ± 0.62 ^⸸ % | 83.01 ± 0.42 ^⸸ % | 87.50 ± 2.26 ^⸙ % | 04 | 66.29 ± 0.43 | 67.23 ± 0.44 | 72.83 ± 1.07 | IC50, H2O2 free radical scavenging ability [2]: 4.50 µg/mL; inhibition of butyrylcholinesterase (% BChE activity) ([4]; Comp. Conc. 500 µg/mL): 76.87 ± 0.39 %; inhibition of butyrylcholinesterase (% BChE activity) ([4]; Comp. Conc. 1000 µg/mL): 81.44 ± 0.09 %; DPPH Free Radical Scavenging Ability (DPPH scavenging assay [5]): 77.80 ± 0.37 ^⸙ %
O=C([O-])Cc1ccccc1Cl.O=C([O-])Cc1ccccc1Cl.O=C([O-])Cc1ccccc1Cl.O=C([O-])Cc1ccccc1Cl.Oc1ccncc1.Oc1ccncc1.[Cu+2].[Cu+2] [Complex 3, Cun(2-ClC6H4COO)4(4-OHPy)2] | 21.72 | 62.50 ± 0.44 % | 66.33 ± 0.33 | 74.66 ± 1.20 | 79.00 ± 0.16 | 61.30 ± 0.52 | 66.37 ± 0.58 % | 72.29 ± 0.43 | 78.58 ± 0.56 | 84.39 ± 0.60 % | 17 | 62.98 ± 0.72 | 67.90 ± 0.96 % | 72.91 ± 0.88 % | 77.08 ± 0.47 % | 81.03 ± 0.35 % | 25 | 60.2 ± 0.98 | 63.3 ± 1.10 | 68.2 ± 0.88 | IC50, H2O2 free radical scavenging ability [2]: 11.47 µg/mL; inhibition of butyrylcholinesterase (% BChE activity) ([4]; Comp. Conc. 500 µg/mL): 73.2 ± 0.98 %; inhibition of butyrylcholinesterase (% BChE activity) ([4]; Comp. Conc. 1000 µg/mL): 76.8 ± 1.20 %; DPPH Free Radical Scavenging Ability (DPPH scavenging assay [5]): 53.00 ± 0.57 %
N#Cc1cccnc1.N#Cc1cccnc1.O=C([O-])Cc1cccc(Cl)c1.O=C([O-])Cc1cccc(Cl)c1.O=C([O-])Cc1cccc(Cl)c1.O=C([O-])Cc1cccc(Cl)c1.[Cu+2].[Cu+2] [Complex 4, Cu2(3-ClC6H4COO)4(3-CNPy)2] | 8.45 | 68.30 ± 0.64 % | 73.34 ± 0.63 | 78.30 ± 0.64 | 83.17 ± 0.72 | 63.47 ± 0.56 | 67.74 ± 0.61 % | 73.67 ± 0.61 | 78.76 ± 0.58 | 85.00 ± 0.30 ^⸸ % | 6 | 67.90 ± 1.16 | 72.34 ± 0.55 % | 78.36 ± 0.49 ^⸸ % | 83.39 ± 0.49 % | 89.39 ± 0.60 % | 03 | 68.52 ± 0.38 | 72.64 ± 0.16 | 77.61 ± 1.70 | IC50, H2O2 free radical scavenging ability [2]: 8.71 µg/mL; inhibition of butyrylcholinesterase (% BChE activity) ([4]; Comp. Conc. 500 µg/mL): 81.94 ± 0.45 %; inhibition of butyrylcholinesterase (% BChE activity) ([4]; Comp. Conc. 1000 µg/mL): 86.47 ± 0.22 ^⸸ %; DPPH Free Radical Scavenging Ability (DPPH scavenging assay [5]): 61.93 ± 1.13 %
